According to article PMC7178854 (Journal of Enzyme Inhibition and Medicinal Chemistry, 2020):

What was measured:
[1] = biological target: T1, ASFV protease (pS273R) (African swine fever virus BA71V, UniProt Q00946); assay type: biochemical
T1 construct: gene Ba71V-111

[2] = biological target: T1, ASFV protease (pS273R); assay: biochemical

T1 sequence (Q00946 whole entry, looked up): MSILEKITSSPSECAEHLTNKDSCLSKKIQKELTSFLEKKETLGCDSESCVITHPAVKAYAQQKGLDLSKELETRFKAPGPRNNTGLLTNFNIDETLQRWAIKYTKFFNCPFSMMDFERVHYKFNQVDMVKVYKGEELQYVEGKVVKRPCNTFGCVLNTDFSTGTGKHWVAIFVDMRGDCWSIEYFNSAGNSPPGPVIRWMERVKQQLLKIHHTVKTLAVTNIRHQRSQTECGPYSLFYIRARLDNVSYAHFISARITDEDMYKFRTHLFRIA

Row | SMILES | RFU at 40 μM [1] | IC50 [2] [µM]
1 | O=c1c(O)c(-c2ccc(O)cc2)oc2c(O)c(O)cc(O)c12 [herbacetin] | Its activity, however, is similar to those of herbacetin, kaempferol and morin | 
2 | O=c1c(O)c(-c2ccc(O)cc2)oc2cc(O)cc(O)c12 [kaempferol] | Its activity, however, is similar to those of herbacetin, kaempferol and morin | 
3 | O=c1c(O)c(-c2ccc(O)cc2O)oc2cc(O)cc(O)c12 [morin] | Its activity, however, is similar to those of herbacetin, kaempferol and morin | 
4 | O=c1c(O)c(-c2cc(O)c(O)c(O)c2)oc2cc(O)cc(O)c12 [myricetin, 3,3′,4′,5,5′,7-Hexahydroxyflavone] |  | 8.4
5 | C[C@@H]1O[C@@H](Oc2c(-c3cc(O)c(O)c(O)c3)oc3cc(O)cc(O)c3c2=O)[C@H](O)[C@H](O)[C@H]1O [myricitrin] |  | 2.7
